The subject of series [1] is elastase-induced emphysema in rats. As to the kind of experiment: Repair of alveoli in elastase-induced emphysema (rat model). The format is in vivo, male Sprague Dawley rats. The settings on record: starting 21 days post elastase injury, morphometric analysis of lung sections. The method, then:
Effects of RAR Selective Retinoids on Repair of Alveoli in Elastase-induced Emphysema
RAR selective agonists were evaluated for its effects on alveolar repair in the rat model of elastase-induced emphysema in rats (D. Massaro et al. Nature Medicine (1997, 3, 675). Animals were divided into treatment groups of approximately eight. Lung inflammation and alveolar damage was induced in male Sprague Dawley rats by a single installation of pancreatic elastase(porcine derived, Calbiochem) 2 U/gram body mass. Three weeks post injury all-trans retinoic acid or RAR agonist was dissolved in dimethylsulfoxide (20 mg/ml) and stored at −20 C. Fresh working stocks were prepared fresh daily by dilution in PBS to a final concentration of 2 mg/ml. Animals were dosed once daily with the retinoid by intraperitoneal injection or orally, starting 21 days post injury. Control groups were challenged with elastase and 21 days later treated with Vehicle (DMSO/PBS) for 14 days. Animals were sacrificed 24 hours after the last dose of by exsanguination under deep anesthesia.
The lungs were inflated with 10% neutral buffered formalin by intratracheal instillation at a constant rate (1 ml/gram body mass/min). The lung was excised and immersed in fixative for 24 hours prior to processing. Standard methods were used to prepare 5 um paraffin sections. Sections were stained with Hematoxylin and Eosin (H%E). Computerized Morphometric analysis was performed to determine the average alveolar size and alveolar number (Table 1).

Molecules are shown by their SMILES.

By melting point is commonly meant the temperature, or range, at which the solid turns liquid.

The compound `CC1(C)CCC(C)(C)C2=C1CC(C)(C(=O)Oc1ccc(C(=O)O)cc1)C2` [B, 2,4,4,7,7-pentamethyl-2,3,4,5,6,7-hexahydro-1H-indene-2-carboxylic acid 4-carboxy-phenyl ester] came in with a melting point of 205 to 206 °C.

`CCC1(C(=O)Oc2ccc(C(=O)O)cc2)CC2=C(C1)C(C)(C)CCC2(C)C` [C, 2-ethyl-4,4,7,7-tetramethyl-2,3,4,5,6,7-hexahydro-1H-indene-2-carboxylic acid 4-carboxy-phenyl ester] showed a melting point of 175 to 176 °C. On the same count and under the same terms, the figure for `CC1(C)CCC(C)(C)C2=C1CC(Cc1ccccc1)(C(=O)Oc1ccc(C(=O)O)cc1)C2` [E, 2-benzyl-4,4,7,7-tetramethyl-2,3,4,5,6,7-hexahydro-1H-indene-2-carboxylic acid 4-carboxy-phenyl ester] is 183 to 184 °C; for `CCCC1(C(=O)Oc2ccc(C(=O)O)cc2)CC2=C(C1)C(C)(C)CCC2(C)C` [Example 3.5, 4,4,7,7-Tetramethyl-2-propyl-2,3,4,5,6,7-hexahydro-1H-indene-2-carboxylic acid 4-carboxy-phenyl ester] it is 156 to 157 °C; for `CCCCC1(C(=O)Oc2ccc(C(=O)O)cc2)CC2=C(C1)C(C)(C)CCC2(C)C` [Example 3.6, 2-Butyl-4,4,7,7-tetramethyl-2,3,4,5,6,7-hexahydro-1H-indene-2-carboxylic acid 4-carboxy-phenyl ester] it is 172 to 173 °C.

Take `CC(C)CC1(C(=O)Oc2ccc(C(=O)O)cc2)CC2=C(C1)C(C)(C)CCC2(C)C` [Example 3.7, 2-Isobutyl-4,4,7,7-tetramethyl-2,3,4,5,6,7-hexahydro-1H-indene-2-carboxylic acid 4-carboxy-phenyl ester]: the melting point was in the range of 194 to 196 °C. On the same count and under the same terms, the figure for `CCCCCCC1(C(=O)Oc2ccc(C(=O)O)cc2)CC2=C(C1)C(C)(C)CCC2(C)C` [Example 3.8, 2-Hexyl-4,4,7,7-tetramethyl-2,3,4,5,6,7-hexahydro-1H-indene-2-carboxylic acid 4-carboxy-phenyl ester] is 149 to 150 °C; for `CC1(C)CCC(C)(C)C2=C1CC(CCc1ccccc1)(C(=O)Oc1ccc(C(=O)O)cc1)C2` [Example 3.9, 4,4,7,7-Tetramethyl-2-phenethyl-2,3,4,5,6,7-hexahydro-1H-indene-2-carboxylic acid 4-carboxy-phenyl ester] it is 182 to 183 °C.

Take `CCCCCC1(C(=O)Oc2ccc(C(=O)O)cc2)CC2=C(C1)C(C)(C)CCC2(C)C` [compound D, 4,4,7,7-tetramethyl-2-pentyl-2,3,4,5,6,7-hexahydro-1H-indene-2-carboxylic acid 4-carboxy-phenyl ester]: the melting point lay in the range of 156 to 158 °C. Besides, in series [1] (0.3 mg/kg p.o. once daily), the “% repair area” value is on record as 11.1%. In addition, the “% repair area” value in series [1] (0.5 mg/kg i.p. once daily) turned out to be 54%. For the same compound, the “% repair area” value in series [1] (1 mg/kg p.o. once daily) was determined as 44%. In series [1] (3 mg/kg p.o. once daily), the “% repair area” value turned out to be 48.6%.

The record behind these values is patent publication US6528677B1, “Selective retinoid agonists” (Hoffmann-La Roche Inc., priority 1999, dated 2003).
